The record followed here is ChEMBL document CHEMBL1137798, “Evaluation of natural products as inhibitors of human immunodeficiency virus type 1 (HIV-1) reverse transcriptase” (J Nat Prod, 1991).

Each structure is given as a SMILES string. Counter-ions that a name gives are not always drawn.

The target in the assay is Human immunodeficiency virus type 1 reverse transcriptase (Human immunodeficiency virus 1, UniProt Q72547). The note with it: read-out: IC50 (converted).
With `COC(=O)CC1(O)C=CC(=O)C=C1` [JACARANONE], the IC50 (commonly the concentration at which inhibition is half-maximal) is greater than 1100 µM.

As to `COc1cc2c(cc1O)CC[n+]1cc3c(OC)c(OC)ccc3cc1-2` [JATRORRHIZINE CHLORIDE], the IC50 is 190 µM.

For the compound `O=c1c(O)c(-c2ccc(O)cc2)oc2cc(O)cc(O)c12` [KAEMPFEROL], the IC50 was less than 524 µM.

As to `COc1c2occc2c(OC)c2c(=O)cc(C)oc12` [KHELLIN], the IC50 is greater than 769 µM.

Turning to `C/C=C(/C)C(=O)O[C@H]1CCN2CC=C(COC(=O)[C@](O)([C@H](C)OC)C(C)(C)O)[C@H]12` [LASIOCARPINE], the IC50 is greater than 486 µM.

Turning to `O=C1CCC[C@H]2[C@@H]3CCCN4CCC[C@H](CN12)[C@@H]34` [LEONTINE], the IC50 was greater than 805 µM.

For the compound `CC1(C)O[C@H]2CC(=O)OC[C@]23[C@H]2CC[C@@]4(C)[C@H](c5ccoc5)OC(=O)[C@H]5O[C@]54[C@]2(C)C(=O)C[C@@H]13` [LIMONIN], the IC50 was greater than 425 µM.

For `COc1cc([C@H]2OC[C@H]3[C@@H]2CO[C@@H]3c2cc(OC)c(O[C@@H]3O[C@H](CO)[C@@H](O)[C@H](O)[C@H]3O)c(OC)c2)cc(OC)c1O[C@@H]1O[C@H](CO)[C@@H](O)[C@H](O)[C@H]1O` [LIRIODENDRIN], the IC50 was greater than 269 µM.

Consider `C/C=C1/CN2[C@H]3C[C@@H]1[C@@H](CO)[C@@H]2Cc1c3[nH]c2ccc(OC)cc12` [LOCHNERINE], for which the IC50 is greater than 616 µM.

As to `COc1cc2cc(c1Cl)N(C)C(=O)C[C@H](OC(=O)[C@H](C)N(C)C(C)=O)[C@]1(C)O[C@H]1[C@H](C)[C@@H]1C[C@@](O)(NC(=O)O1)[C@H](OC)/C=C/C=C(\C)C2` [MAYTANSINE], the IC50 is greater than 289 µM.

Regarding `COc1c(O)c2c3c(nccc3c1OC)C(C)(C)c1cc(O)ccc1-2` [MELOSMINE], the concentration for half-maximal inhibition (IC50) was greater than 593 µM.

Turning to `C[C@H]1C(=O)O[C@@H]2CCN3CC=C(COC(=O)[C@](C)(O)[C@]1(C)O)[C@H]23` [MONOCROTALINE], the IC50 was greater than 615 µM.

As to `COc1ccc(C(=O)Cc2c(CCN(C)C)cc3c(c2OC)OCO3)c(C(=O)O)c1OC` [NARCEINE], the IC50 is greater than 449 µM.

As to `COc1c([N+](=O)[O-])c2c(c3c1c(=O)c1ccccc1n3C)C=CC(C)(C)O2` [NITROACRONYCINE], the IC50 was greater than 546 µM.

Take `CC(=O)O[C@H]1CC(=O)OC(C)(C)[C@@H]2CC(=O)[C@]3(C)[C@H](CC[C@@]4(C)[C@@H](c5ccoc5)OC(=O)[C@H]5O[C@]543)[C@@]12C` [NOMILIN]: the IC50 was greater than 389 µM.

In the case of `COC(=O)C[C@](O)(CCCC(C)(C)O)C(=O)O[C@@H]1C(OC)=C[C@]23CCCN2CCc2cc4c(cc2[C@H]13)OCO4` [OMACETAXINE MEPESUCCINATE], the IC50 is greater than 367 µM.

On to `C1CN[C@@H]2[C@@H](C1)[C@@H]1CC2([C@H]2CCC[C@H](C3CC[C@@H]4N[C@H]3N3CCC[C@H]5C[C@@H]6C[C@]4(CN4CCCC[C@H]64)[C@@H]53)N2)CN2CCCC[C@H]12` (some centres undefined) [ORMOSININE], for which the IC50 was greater than 324 µM.

In the case of `C[C@@H]1O[C@@H](O[C@H]2C[C@@H](O)[C@]3(CO)[C@H]4[C@H](O)C[C@]5(C)[C@@H](C6=CC(=O)OC6)CC[C@]5(O)[C@@H]4CC[C@]3(O)C2)[C@H](O)[C@H](O)[C@H]1O` [OUABAIN], the IC50 was greater than 342 µM.

Take `CC(=O)O[C@H]1C(=O)[C@@]2(C)[C@H]([C@H](OC(=O)c3ccccc3)[C@]3(O)C[C@H](OC(=O)[C@H](O)[C@@H](NC(=O)c4ccccc4)c4ccccc4)C(C)=C1C3(C)C)[C@]1(OC(C)=O)CO[C@@H]1C[C@@H]2O` [PACLITAXEL]: the IC50 is greater than 234 µM.

Take `C1CCN2C[C@]34C[C@H](C[C@@H]5CCCN([C@@H]6CCC[C@@H]3N6)[C@H]54)[C@H]2C1` [PANAMINE DIPERCHLORATE]: the concentration for half-maximal inhibition (IC50) was greater than 387 µM.

Turning to `C1CCN2C[C@]34C[C@H](C[C@@H]5CCCN([C@@H]6CCC[C@@H]3N6)[C@H]54)[C@H]2C1` [PANAMINE], the IC50 was greater than 634 µM.

With `COc1ccc(Cc2nccc3cc(OC)c(OC)cc23)cc1OC` [PAPAVERINE], the 50% inhibitory concentration (IC50) was less than 589 µM.

On to `CC(=O)O[C@@H]1[C@H]2[C@H]3C[C@H]4C5=Nc6ccccc6[C@]51C[C@@H]2N4[C@H](C)C3C=O` (some centres undefined) [PERAKINE], for which the IC50 was greater than 571 µM.

Take `C=C1c2cc3[nH]ccc3cc2CN2CC[C@@H]1/C(=C\C)C2` [PERICALLINE]: the IC50 is greater than 757 µM.

Consider `C/C=C1/C=[N+]2[C@H]3C[C@H]1[C@H](C(=O)OC)[C@@H]2Cc1c3[nH]c2ccc(O)cc12` [PERICYCLIVINE], for which the IC50 is greater than 593 µM.

On to `C/C=C1/CN(C=O)[C@H]2Cc3c([nH]c4ccccc34)C(=O)C[C@@H]1[C@@H]2C(=O)OC` [PERIFORMYLINE], for which the 50% inhibitory concentration (IC50) was greater than 546 µM.

With `C/C=C1/CN[C@H]2Cc3c([nH]c4ccccc34)C(=O)C[C@@H]1[C@@H]2C(=O)OC` [PERIVINE], the 50% inhibitory concentration (IC50) is greater than 591 µM.

With `CNC[C@H](O)c1cccc(O)c1` [PHENYLEPHRINE], the IC50 was greater than 1200 µM.

As to `CC(=O)O[C@@H]1[C@@H](O)[C@H](O[C@H]2[C@H](OC(=O)[C@H]3CC[C@@H]4[C@H](C3)O[C@@]3(C[C@H](OC(=O)/C=C/c5ccccc5)[C@H](C)CO3)[C@]43CO3)O[C@H](C)[C@@H](O)[C@@H]2OC(C)=O)O[C@H](C)[C@H]1O` [PHYLLANTHOSIDE], the 50% inhibitory concentration (IC50) is greater than 248 µM.

With `C=C(C)[C@@H]1[C@H]2OC(=O)[C@@H]1[C@]1(O)C[C@H]3OC34C(=O)O[C@H]2[C@@]41C.CC(C)(O)[C@@H]1[C@H]2OC(=O)[C@@H]1[C@]1(O)C[C@H]3OC34C(=O)O[C@H]2[C@@]41C` (some centres undefined) [PICROTOXIN], the IC50 was greater than 332 µM.

For the compound `C/C=C1/C(=O)O[C@]23C=C[C@@H]4C(C(=O)OC)=CO[C@H](O[C@@H]12)[C@@H]43` [PLUMERICIN], the IC50 was greater than 689 µM.

Take `COC(=O)C1=CO[C@@H](O[C@@H]2O[C@H](CO)[C@@H](O)[C@H](O)[C@H]2O)[C@H]2[C@@H]1C=C[C@@]21C=C([C@H](C)O)C(=O)O1` [PLUMIERIDE]: the IC50 was greater than 425 µM.

In the case of `CC(C)(O)CC[C@@H](O)[C@](C)(O)[C@H]1CC[C@@]2(O)C3=CC(=O)[C@]4(O)C[C@@H](O)[C@@H](O)C[C@]4(C)[C@H]3CC[C@]12C` [POLYPODIN], the IC50 was greater than 403 µM.

With `CC1(C)CC[C@]2(CO)[C@H](O)C[C@]3(C)C(=CC[C@@H]4[C@@]5(C)CC[C@H](O)C(C)(C)[C@@H]5CC[C@]43C)[C@@H]2C1` [PRIMULAGENIN], the IC50 was greater than 436 µM.

Take `O=c1c(O)c(-c2ccc(O)c(O)c2)oc2cc(O)cc(O)c12` [QUERCETIN]: the IC50 was less than 662 µM.

As for `C=C[C@H]1C[N@@]2CC[C@H]1C[C@@H]2[C@@H](O)c1ccnc2ccc(OC)cc12` [QUINIDINE SULFATE], the IC50 is greater than 511 µM.

With `COC(=O)C1=CO[C@H](C)[C@@H]2CN3CCc4c([nH]c5ccccc45)[C@@H]3C[C@H]12` [RAUNITICINE], the IC50 was greater than 567 µM.

For the compound `COC(=O)C1=CO[C@H](C)[C@@H]2CN3CCc4c([nH]c5cc(OC)ccc45)[C@@H]3C[C@H]12` [RAUNITIDINE], the IC50 is greater than 523 µM.

As for `C/C=C1/C[C@@H](C)[C@](O)(CO)C(=O)OCC2=CCN3CC[C@@H](OC1=O)[C@@H]23` [RETRORSINE], the concentration for half-maximal inhibition (IC50) was greater than 569 µM.

As to `C=C(C)[C@H]1Cc2c(ccc3c2O[C@@H]2COc4cc(OC)c(OC)cc4[C@]2(O)C3=O)O1` [ROTENOLONE], the IC50 is greater than 487 µM.

In the case of `C=C(C)[C@H]1Cc2c(ccc3c2O[C@@H]2COc4cc(OC)c(OC)cc4[C@@H]2C3=O)O1` [ROTENONE], the IC50 is greater than 507 µM.

As to `C[n+]1cc2c3c(ccc2c2ccc4cc5c(cc4c21)OCO5)OCO3` [SANGUINARINE NITRATE], the IC50 was less than 380 µM.

Turning to `C/C=C1/CN2[C@H]3C[C@H]1[C@@H](CO)[C@@H]2Cc1c3[nH]c2ccc(O)cc12` [SARPAGINE], the IC50 was greater than 644 µM.

Take `O=C1C[C@]23C=CCN4CC[C@H]5c6cc7c(cc6N1[C@@]5(CC2)[C@@H]43)OCO7` [SCHIZOZYGINE]: the IC50 was greater than 595 µM.

For the compound `CN1[C@@H]2C[C@@H](OC(=O)[C@H](CO)c3ccccc3)C[C@H]1[C@@H]1O[C@@H]12` [SCOPOLAMINE HYDROBROMIDE], the IC50 was greater than 456 µM.

Turning to `C/C=C1/C[C@@H](C)[C@@](C)(O)C(=O)OCC2=CCN3CC[C@@H](OC1=O)[C@@H]23` [SENECIONINE], the IC50 was greater than 596 µM.

On to `C=C1C/C(=C/C)C(=O)O[C@@H]2CCN3CC=C(COC(=O)[C@]1(C)O)[C@H]23` [SENECIPHYLLINE], for which the IC50 is greater than 600 µM.

As for `CC(=O)N[C@H]1[C@@H](O[C@H]2[C@H](O)[C@@H](O)[C@H](O[C@H]3[C@H](CS(=O)(=O)O)[C@@H](OS(=O)(=O)O)[C@@H](O[C@H]4[C@H](O)[C@@H](OS(=O)(=O)O)C(O)O[C@H]4C(=O)O)O[C@@H]3O)O[C@@H]2C(=O)O)O[C@H](COS(=O)(=O)O)[C@@H](O)[C@@H]1O` (some centres undefined) [SODIUM HEPARIN], the IC50 is greater than 192 µM.

As for `C1CCN2C[C@@H]3C[C@@H](CN4CCCC[C@@H]34)[C@H]2C1` [SPARTEINE SULFATE], the IC50 was greater than 473 µM.

With `C1CCN2C[C@@H]3C[C@@H](CN4CCCC[C@@H]34)[C@H]2C1` [SPARTEINE], the IC50 is greater than 853 µM.

For the compound `C=C1C[C@@]23CC[C@H]4[C@@](C)(CCC[C@@]4(C)C(=O)O)[C@@H]2CC[C@]1(O)C3` [STEVIOL], the IC50 was greater than 628 µM.

For `C=C1C[C@@]23CC[C@H]4[C@@](C)(CCC[C@@]4(C)C(=O)O[C@@H]4O[C@H](CO)[C@@H](O)[C@H](O)[C@H]4O)[C@@H]2CC[C@]1(O[C@@H]1O[C@H](CO)[C@@H](O)[C@H](O)[C@H]1O[C@@H]1O[C@H](CO)[C@@H](O)[C@H](O)[C@H]1O)C3` [STEVIOSIDE], the IC50 is greater than 248 µM.

`CC[C@H](/C=C/[C@@H](C)[C@H]1CC[C@H]2[C@@H]3CC=C4C[C@@H](O)CC[C@]4(C)[C@H]3CC[C@]12C)C(C)C` [STIGMASTEROL]: the IC50 is greater than 485 µM.

Regarding `O=C(OC[C@H]1O[C@@H](OC(=O)c2cc(O)c(O)c(OC(=O)c3cc(O)c(O)c(O)c3)c2)[C@H](OC(=O)c2cc(O)c(O)c(OC(=O)c3cc(O)c(O)c(O)c3)c2)[C@@H](OC(=O)c2cc(O)c(O)c(OC(=O)c3cc(O)c(O)c(O)c3)c2)[C@@H]1OC(=O)c1cc(O)c(O)c(OC(=O)c2cc(O)c(O)c(O)c2)c1)c1cc(O)c(O)c(OC(=O)c2cc(O)c(O)c(O)c2)c1` [TANNIC ACID], the IC50 is less than 29.4 µM.
